Test results published in paper PMC5988656, “Phase I studies of AZD1208, a proviral integration Moloney virus kinase inhibitor in solid and haematological cancers” (British Journal of Cancer, 2018).

How the values were obtained:
relapsed/refractory AML = experiment: AML study: antileukaemic activity (IWG response criteria); type: in vivo, human
Text: The antileukaemic activity in AML was according to the International Working Group (IWG) response criteria for AML.[17] Response criteria were modified such that an M-1 marrow was defined as 1% to ≤5% and a partial response as >5% to 25%.[18]

AML cell lines = settings: cited from earlier work
[1] = tested on: patients with AML or advanced solid tumours; experiment: Both dose-escalation studies pooled: adverse events; type: in vivo, human
Description: Safety and tolerability were assessed from the time of informed consent until the end of follow-up (defined as 30 and 28 days after study treatment was discontinued for the AML and solid tumour studies, respectively) by evaluation of adverse events (AEs), vital signs, ECGs and laboratory assessments. The CTCAE (version 4.0) was utilised to grade all AE events.
AEs were summarised by Medical Dictionary for Regulatory Activities (MedDRA) system organ class, MedDRA preferred term and CTCAE grade. Summary statistics of mean, median, standard deviation, minimum, maximum and number of observations were used.

[2] = tested on: MYC-driven prostate cancer models; set-up: method as in PMID 25505253; settings: cited from earlier work
[3] = Investigator assessed, 120 mg, n=4
[4] = Investigator assessed, 240 mg, n=6
[5] = Investigator assessed, 480 mg, n=6
[6] = Investigator assessed, 700 mg, n=7
[7] = Investigator assessed, 900 mg, n=9
[8] = Modified Cheson criteria, 120 mg, n=4
[9] = Modified Cheson criteria, 240 mg, n=6
[10] = Modified Cheson criteria, 480 mg, n=6
[11] = Modified Cheson criteria, 700 mg, n=7
[12] = Modified Cheson criteria, 900 mg, n=9

SMILES: N[C@@H]1CCCN(c2c(/C=C3\SC(=O)NC3=O)cccc2-c2ccccc2)C1 [AZD1208]
- Discontinued study treatment due to a lack of therapeutic response, patients (relapsed/refractory AML; 32 eligible patients): 59.4%
- Best response: CR (relapsed/refractory AML; [3]): 0 n (%)
- Best response: CRi (relapsed/refractory AML; [3]): 0 n (%)
- Best response: Morphologic leukaemia free (relapsed/refractory AML; [3]): 0 n (%)
- Best response: Non-response (relapsed/refractory AML; [3]): 3 (75.0) n (%)
- Best response: Partial remission (relapsed/refractory AML; [3]): 0 n (%)
- Best response: CR (relapsed/refractory AML; [4]): 0 n (%)
- Best response: CRi (relapsed/refractory AML; [4]): 0 n (%)
- Best response: Morphologic leukaemia free (relapsed/refractory AML; [4]): 0 n (%)
- Best response: Non-response (relapsed/refractory AML; [4]): 3 (50.0) n (%)
- Best response: Partial remission (relapsed/refractory AML; [4]): 0 n (%)
- Best response: CR (relapsed/refractory AML; [5]): 0 n (%)
- Best response: CRi (relapsed/refractory AML; [5]): 0 n (%)
- Best response: Morphologic leukaemia free (relapsed/refractory AML; [5]): 0 n (%)
- Best response: Non-response (relapsed/refractory AML; [5]): 3 (50.0) n (%)
- Best response: Partial remission (relapsed/refractory AML; [5]): 0 n (%)
- Best response: CR (relapsed/refractory AML; [6]): 0 n (%)
- Best response: CRi (relapsed/refractory AML; [6]): 0 n (%)
- Best response: Morphologic leukaemia free (relapsed/refractory AML; [6]): 0 n (%)
- Best response: Non-response (relapsed/refractory AML; [6]): 1 (14.3) n (%)
- Best response: Partial remission (relapsed/refractory AML; [6]): 0 n (%)
- Best response: CR (relapsed/refractory AML; [7]): 0 n (%)
- Best response: CRi (relapsed/refractory AML; [7]): 0 n (%)
- Best response: Morphologic leukaemia free (relapsed/refractory AML; [7]): 0 n (%)
- Best response: Non-response (relapsed/refractory AML; [7]): 2 (22.2) n (%)
- Best response: Partial remission (relapsed/refractory AML; [7]): 0 n (%)
- Best response: CR (relapsed/refractory AML; [8]): 0 n (%)
- Best response: CRi (relapsed/refractory AML; [8]): 0 n (%)
- Best response: Morphologic leukaemia free (relapsed/refractory AML; [8]): 0 n (%)
- Best response: Non-response (relapsed/refractory AML; [8]): 4 (100) n (%)
- Best response: Partial remission (relapsed/refractory AML; [8]): 0 n (%)
- Best response: CR (relapsed/refractory AML; [9]): 0 n (%)
- Best response: CRi (relapsed/refractory AML; [9]): 0 n (%)
- Best response: Morphologic leukaemia free (relapsed/refractory AML; [9]): 0 n (%)
- Best response: Non-response (relapsed/refractory AML; [9]): 6 (100) n (%)
- Best response: Partial remission (relapsed/refractory AML; [9]): 0 n (%)
- Best response: CR (relapsed/refractory AML; [10]): 0 n (%)
- Best response: CRi (relapsed/refractory AML; [10]): 0 n (%)
- Best response: Morphologic leukaemia free (relapsed/refractory AML; [10]): 0 n (%)
- Best response: Non-response (relapsed/refractory AML; [10]): 6 (100) n (%)
- Best response: Partial remission (relapsed/refractory AML; [10]): 0 n (%)
- Best response: CR (relapsed/refractory AML; [11]): 0 n (%)
- Best response: CRi (relapsed/refractory AML; [11]): 0 n (%)
- Best response: Morphologic leukaemia free (relapsed/refractory AML; [11]): 0 n (%)
- Best response: Non-response (relapsed/refractory AML; [11]): 7 (100) n (%)
- Best response: Partial remission (relapsed/refractory AML; [11]): 0 n (%)
- Best response: CR (relapsed/refractory AML; [12]): 0 n (%)
- Best response: CRi (relapsed/refractory AML; [12]): 0 n (%)
- Best response: Morphologic leukaemia free (relapsed/refractory AML; [12]): 0 n (%)
- Best response: Non-response (relapsed/refractory AML; [12]): 9 (100) n (%)
- Best response: Partial remission (relapsed/refractory AML; [12]): 0 n (%)
- Clinical responses according to IWG criteria (relapsed/refractory AML; all doses): no clinical responses
- Effect on cell cycle and apoptosis (AML cell lines): induced cell cycle arrest and apoptosis
- Patients who experienced adverse events [1]: 98.5%
- Patients with gastrointestinal adverse events [1]: 92.5%
- Tumour growth [2]: significantly decreased tumour growth
